Experimental data published in US10105357B2, “Indication of antibiotic drugs for preparation of cancer inhibition pharmaceutical composition” (LAUNX BIOMEDICAL CO., LTD., priority 2014, dated 2018).
Where two headings read alike, the source gives them in different places.

Experiments:
[1] = test system: HI650 (Lung Adenocarcinoma); experiment: Cell viability analysis, lung cancer HI650; format: cell-based, human; conditions: Homo sapiens, NCI-H1650, 72 h
[2] = test system: A549 (Lung Adenocarcinoma); experiment: Cell viability analysis, lung cancer A549; format: cell-based, human; conditions: Homo sapiens, A549, 72 h
[3] = test system: AGS (Gastric Adenocarcinoma); experiment: Cell viability analysis, gastric cancer AGS; format: cell-based, human; conditions: Homo sapiens, 72 h
[4] = test system: MKN-45 (Gastric Adenocarcinoma); experiment: Cell viability analysis, gastric cancer MKN-45; format: cell-based, human; conditions: Homo sapiens, MKN-45, 72 h
[5] = test system: HepG2 (Hepatocellular Carcinoma); experiment: Cell viability analysis, hepatic cancer HepG2; format: cell-based, human; conditions: Homo sapiens, HepG2, 72 h
[6] = test system: Hep3B (hepatocellular carcinoma); experiment: Cell viability analysis, hepatic cancer Hep3B; format: cell-based, human; conditions: Homo sapiens, Hep3B, 72 h, read-out: The results of antibiotic drug inhibiting cancer cell lines (cell viability analysis), Hep3B
[7] = test system: LoVo (Colorectal Adenocarcinoma); experiment: Cell viability analysis, colon cancer LoVo; format: cell-based, human; conditions: Homo sapiens, LoVo, 72 h
[8] = test system: A375 (Amelanotic Melanoma); experiment: Cell viability analysis, skin cancer A375; format: cell-based, human; conditions: Homo sapiens, A-375, 72 h
[9] = test system: HeLa (Cervix Adenocarcinoma); experiment: Cell viability analysis, cervical cancer HeLa; format: cell-based, human; conditions: Homo sapiens, HeLa, 72 h
[10] = test system: C-33A (Cervical carcinoma); experiment: Cell viability analysis, cervical cancer C-33A; format: cell-based, human; conditions: Homo sapiens, C-33-A, 72 h, read-out: The results of antibiotic drug inhibiting cancer cell lines (cell viability analysis), C-33A
[11] = test system: PC3 (p53−) (Prostate Adenocarcinoma); experiment: Cell viability analysis, prostate cancer PC3; format: cell-based, human; conditions: Homo sapiens, 72 h
[12] = test system: TSGH-8301 (Urinary Bladder Carcinoma); experiment: Cell viability analysis, bladder cancer TSGH-8301; format: cell-based, human; conditions: Homo sapiens, 72 h
T24 = experiment: Cell viability analysis, bladder cancer T24; format: cell-based, human; conditions: Homo sapiens, T-24, 72 h, read-out: The results of antibiotic drug inhibiting cancer cell lines (cell viability analysis), T24
[13] = test system: MCF7 (Mammary Gland, Adenocarcinoma); experiment: Cell viability analysis, breast cancer MCF7; format: cell-based, human; conditions: Homo sapiens, MCF7, 72 h
[14] = test system: MDA-MB-231 (Mammary Gland, Adenocarcinoma); experiment: Cell viability analysis, breast cancer MDA-MB-231; format: cell-based, human; conditions: Homo sapiens, MDA-MB-231, 72 h, read-out: The results of antibiotic drug inhibiting cancer cell lines (cell viability analysis), MDA-MB231
BxPC-3 = experiment: Cell viability analysis, pancreatic cancer BxPC-3; format: cell-based, human; conditions: Homo sapiens, BXPC-3, 72 h, read-out: The results of antibiotic drug inhibiting cancer cell lines (cell viability analysis), BxPC-3
AsPC-1 = experiment: Cell viability analysis, pancreatic cancer AsPC-1; format: cell-based, human; conditions: Homo sapiens, ASPC1, 72 h, read-out: The results of antibiotic drug inhibiting cancer cell lines (cell viability analysis), AsPC-1
NIH: OVCAR-3 = experiment: Cell viability analysis, ovarian cancer NIH: OVCAR-3; format: cell-based, human; conditions: Homo sapiens, OVCAR-3, 72 h, read-out: The results of antibiotic drug inhibiting cancer cell lines (cell viability analysis), NIH-OVCAR-3
TOV-21G = experiment: Cell viability analysis, ovarian cancer TOV-21G; format: cell-based, human; conditions: Homo sapiens, TOV21G, 72 h, read-out: The results of antibiotic drug inhibiting cancer cell lines (cell viability analysis), TOV-21G
[15] = test system: SAS (Tongue squamous cell carcinoma); experiment: Cell viability analysis, tongue cancer SAS; format: cell-based, human; conditions: Homo sapiens, 72 h, read-out: The results of antibiotic drug inhibiting cancer cell lines (cell viability analysis), SAS
U-2OS = experiment: Cell viability analysis, osteosarcoma U-2OS; format: cell-based, human; conditions: Homo sapiens, U2OS, 72 h, read-out: The results of antibiotic drug inhibiting cancer cell lines (cell viability analysis), U2OS
[16] = test system: 786-O (Renal adenocarcinoma); experiment: Cell viability analysis, renal cancer 786-O; format: cell-based, human; conditions: Homo sapiens, 786-0, 72 h, read-out: The results of antibiotic drug inhibiting cancer cell lines (cell viability analysis), 786-O
[17] = test system: HL-60 (Acute Promyelocytic Leukemia); experiment: Cell viability analysis, leukemia HL-60; format: cell-based, human; conditions: Homo sapiens, HL-60, 72 h, read-out: cell viability (survival rate), HL-60, drug 10 μM, 72 hours, WST-1, OD450 nm
[18] = test system: HCT116 (p53+) (Colorectal Carcinoma)
cancer cell lines = experiment: Cell viability analysis (WST-1) on cancer cell lines; format: cell-based, human; conditions: drug 10 μM, 72 hours, WST-1; Table 3
[19] = test system: BCC (basal cell carcinoma); experiment: Cell viability analysis, skin cancer BCC; format: cell-based, human; conditions: Homo sapiens, 72 h, read-out: The results of antibiotic drug inhibiting cancer cell lines (cell viability analysis), BCC
[20] = read-out: The results of antibiotic drug inhibiting cancer cell lines (cell viability analysis), H1650, H1650, repeated experiment
[21] = read-out: cell viability (survival rate), H1650, drug 10 μM, 72 hours, WST-1, OD450 nm
[22] = read-out: The results of antibiotic drug inhibiting cancer cell lines (cell viability analysis), A549, A549, repeated experiment
[23] = read-out: cell viability (survival rate), A549, drug 10 μM, 72 hours, WST-1, OD450 nm
[24] = read-out: The results of antibiotic drug inhibiting cancer cell lines (cell viability analysis), AGS, repeated experiment
[25] = read-out: cell viability (survival rate), AGS, drug 10 μM, 72 hours, WST-1, OD450 nm
[26] = read-out: The results of antibiotic drug inhibiting cancer cell lines (cell viability analysis), MKN-45, MKN-45, repeated experiment
[27] = read-out: cell viability (survival rate), MKN-45, drug 10 μM, 72 hours, WST-1, OD450 nm
[28] = read-out: The results of antibiotic drug inhibiting cancer cell lines (cell viability analysis), HepG2, HepG2, repeated experiment
[29] = read-out: cell viability (survival rate), HepG2, drug 10 μM, 72 hours, WST-1, OD450 nm
[30] = read-out: The results of antibiotic drug inhibiting cancer cell lines (cell viability analysis), LoVo, repeated experiment
[31] = read-out: cell viability (survival rate), LoVo, drug 10 μM, 72 hours, WST-1, OD450 nm
[32] = read-out: The results of antibiotic drug inhibiting cancer cell lines (cell viability analysis), A375, A375, repeated experiment
[33] = read-out: cell viability (survival rate), A375, drug 10 μM, 72 hours, WST-1, OD450 nm
[34] = read-out: The results of antibiotic drug inhibiting cancer cell lines (cell viability analysis), HeLa, repeated experiment
[35] = read-out: cell viability (survival rate), HeLa, drug 10 μM, 72 hours, WST-1, OD450 nm
[36] = read-out: The results of antibiotic drug inhibiting cancer cell lines (cell viability analysis), PC-3, PC-3, repeated experiment
[37] = read-out: cell viability (survival rate), PC3, drug 10 μM, 72 hours, WST-1, OD450 nm
[38] = read-out: The results of antibiotic drug inhibiting cancer cell lines (cell viability analysis), TSGH-8301, TSGH-8301, repeated experiment
[39] = read-out: cell viability (survival rate), TSGH, drug 10 μM, 72 hours, WST-1, OD450 nm
[40] = read-out: The results of antibiotic drug inhibiting cancer cell lines (cell viability analysis), MCF-7, MCF-7, repeated experiment
[41] = read-out: cell viability (survival rate), MCF7, drug 10 μM, 72 hours, WST-1, OD450 nm

| SMILES | viability at 10 µM [1, 20] [%] | viability at 10 µM [1, 21] [%] | viability at 10 µM [2, 22] [%] | viability at 10 µM [2, 23] [%] | viability at 10 µM [3, 24] [%] | viability at 10 µM [3, 25] [%] | viability at 10 µM [4, 26] [%] | viability at 10 µM [4, 27] [%] | viability at 10 µM [5, 28] [%] | viability at 10 µM [5, 29] [%] | viability at 10 µM [6] [%] | viability at 10 µM [7, 30] [%] | viability at 10 µM [7, 31] [%] | viability at 10 µM [8, 32] [%] | viability at 10 µM [8, 33] [%] | viability at 10 µM [9, 34] [%] | viability at 10 µM [9, 35] [%] | viability at 10 µM [10] [%] | viability at 10 µM [11, 36] [%] | viability at 10 µM [11, 37] [%] | also measured |
| --- | --- | --- | --- | --- | --- | --- | --- | --- | --- | --- | --- | --- | --- | --- | --- | --- | --- | --- | --- | --- | --- |
| Cc1cc2c(s1)Nc1ccccc1N=C2N1CCN(C)CC1 [Olanzapine (Zyprexa), Olanzapine] | 107 | 109 | 106 | 88 | 122 | 84.2 | 125 | 80.1 | 114 | 93.3 | 132 | 81.4 | 88.5 | 98.3 | 91.9 | 121 | 106 | 98.2 | 113 | 92.2 | viability at 10 µM [12, 38]: 152%; viability at 10 µM [12, 39]: 58.7%; viability at 10 µM (T24): 110%; viability at 10 µM [13, 40]: 86.8%; viability at 10 µM [13, 41]: 125%; viability at 10 µM [14]: 111%; viability at 10 µM (BxPC-3): 65.9%; viability at 10 µM (AsPC-1): 84.2%; viability at 10 µM (NIH: OVCAR-3): 96.8%; viability at 10 µM (TOV-21G): 105%; viability at 10 µM [15]: 59.3%; viability at 10 µM (U-2OS): 66%; viability at 10 µM [16]: 91.8%; viability at 10 µM [17]: 118%; viability [18]: 124% |
| Cc1noc(NS(=O)(=O)c2ccc(N)cc2)c1C [Sulfisoxazole] | 75.9 | 73.9 | 105 | 39.4 | 108 | 88.7 | 105 | 48.4 | 122 | 108 | 110 | 112 | 68.8 | 107 | 65.5 | 120 | 78.9 | 116 | 111 | 36.1 | inhibition effect on different cancer cell lines (cancer cell lines): significant inhibition effect; viability at 10 µM [19]: 102%; viability at 10 µM [12, 38]: 105%; viability at 10 µM [12, 39]: 93%; viability at 10 µM (T24): 90.7%; viability at 10 µM [13, 40]: 106%; viability at 10 µM [13, 41]: 46.1%; viability at 10 µM [14]: 104%; viability at 10 µM (BxPC-3): 67.1%; viability at 10 µM (AsPC-1): 80.1%; viability at 10 µM (NIH: OVCAR-3): 108%; viability at 10 µM (TOV-21G): 84.5%; viability at 10 µM (U-2OS): 88.6%; viability at 10 µM [16]: 93.3%; viability at 10 µM [17]: 95.2%; viability [18]: 97.9% |
